Laboratory results published in patent US11034674B2, “Methods of treating inflammation or neuropathic pain” (H. Lundbeck A/S, priority 2015, dated 2021).
Where a name gives a salt, the structure may show the parent alone. Read-outs that look alike come from different tables or passages of the source. Each block holds one compound with its values, some of them ahead of it.

Key:
[1] = Phase 1 single- and multiple-dose study: safety and tolerability; format: in vivo, human
Experimental: (§1) General Design and Methodology: The purpose of this study is to assess the initial safety, tolerability, pharmacokinetics, and pharmacodynamics of Compound 1 (administered as Capsules of the hydrochloride salt of Compound 1) in healthy adults. […] Data from this study is used to select doses and dose regimens for subsequent clinical studies.
In Part 2, Panels are dosed sequentially.

MGLL = MGLL (Canis lupus familiaris, UniProt A0A8I3PC77); assay: biochemical
Chain of MGLL (A0A8I3PC77 1-304): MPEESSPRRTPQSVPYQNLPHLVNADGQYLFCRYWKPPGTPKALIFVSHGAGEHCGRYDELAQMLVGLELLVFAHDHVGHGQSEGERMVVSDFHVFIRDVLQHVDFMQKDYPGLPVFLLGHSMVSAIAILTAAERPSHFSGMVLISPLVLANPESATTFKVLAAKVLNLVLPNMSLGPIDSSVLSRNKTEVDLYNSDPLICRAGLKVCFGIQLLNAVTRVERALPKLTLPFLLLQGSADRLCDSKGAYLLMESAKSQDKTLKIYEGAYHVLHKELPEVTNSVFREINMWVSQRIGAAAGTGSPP
Experimental: In vitro potency was determined using activity-based protein profiling (ABPP) which is a functional proteomic technology that uses chemical probes to covalently modify enzyme active sites in an activity-dependent manner (e.g., only catalytically active enzymes will react and become labeled with the ABPP probe). Identification of the proteins that were labeled by the probes was accomplished using polyacrylamide gel electrophoresis or mass spectrometry.

2-AG [2] = assay: 2-AG and anandamide concentrations in rat tissues and plasma after oral dose; format: in vivo
Description: MGLL target engagement inhibits the hydrolysis of 2-AG, elevating tissue 2-AG concentrations, which can be measured in rodent tissues and fluids by MS. Elevation of 2-AG results in enhanced cannabinoid receptor signaling and physiological responses.
Inhibition of MGLL causes accumulation of 2-AG in the rodent brain and periphery.

2-AG [3] = assay: Rat plasma 2-AG levels after single PO dose (LC-MS/MS); format: in vivo; details: single PO doses up to 30 mg/kg, 4 h
Experimental: […]. MGLL activity was assessed by ABPP analysis in PBMC lysates and plasma 2-AG concentrations were measured by liquid chromatography tandem mass spectrometry (LC-MS/MS).

[4] = Phase 1 single- and multiple-dose study: plasma pharmacokinetics; format: in vivo; details: human, po, fasted; for AUC(0-inf): read-out: AUCinf (mean); for half-life: read-out: T1/2 (median) (converted)
Description: as §1
There is a minimum 72-hour period between administration of study drug in Panels A and B. In addition, there is a minimum 2-week washout between Panel B Period 2 and Panel A Period 3 in order to evaluate available preliminary pharmacokinetic data along with safety and tolerability data from the preceding doses before proceeding with dosing in Periods 3 and 4. All doses are administered orally, together with approximately 240 mL of water. Water is otherwise restricted from 1 hour prior to, and for 1 hour after administration of study drug. In each treatment period, with the exception of Panel A Period 4 (food effect treatment period); study drug is administered after an overnight fast (for approximately 8 hours).
The allocation schedule for Periods 2 and 4 (fasted versus fed) are the same such that the same subjects receive active drug or matching placebo in the respective treatment periods.
PK: Descriptive statistics are provided by treatment (Part 1) and by treatment and day (Part 2). Minimum, median, maximum and CV are provided for all PK parameters. Arithmetic mean and standard deviation based on the raw scale are provided for AUC and Cmax. In addition, the percent CV of AUC and Cmax is also provided and calculated according to the following formula: 100×sqrt(exp(s2)−1), where s2 is the observed variance on the natural log-scale. Harmonic mean and jack-knife SD is provided for half-life. Time to steady-state, and evaluation of PK linearity are evaluated in an exploratory fashion.

in vivo = details: rat, po, 0.5 mg/kg
formalin-challenged rats = assay: Rat formalin paw test
2-AG [5] = assay: Mouse brain 2-AG concentrations after PO dose; details: single-dose PO
[6] = Panel C (10 mg QD×14 days) or Panel D (20 mg QD×14 days)
[7] = 100 mg, single oral dose 100 mg, Panel A, Period 3 (A3)
[8] = 100 mg, single oral dose 100 mg, Panel B, Period 4 (B4)
[9] = 200 mg, single oral dose 200 mg

SMILES: O=C(OC(C(F)(F)F)C(F)(F)F)N1CCN(Cc2ccc(C(F)(F)F)cc2N2CCCC2)CC1 [Compound 1 HCl, 1,1,1,3,3,3-hexafluoropropan-2-yl 4-(2-(pyrrolidin-1-yl)-4-(trifluoromethyl)benzyl)piperazine-1-carboxylate]
- adverse events leading to discontinuation [1, 6]: no adverse events leading to the discontinuation of any subjects
- changes in vital signs, laboratory test values, or ECGs [1, 6]: no clinically significant changes
- vital sign, safety laboratory, or electrocardiographic findings ([1]; healthy male subjects, fasting state, single oral doses up to 200 mg): not associated with any vital sign, safety laboratory, or electrocardiographic findings of note

- IC50 (MGLL; MGLL IC50, Dog Prefrontal Cortex, 30 min pre-incubation at 37° C., mean ± SEM, n = 3): 0.012 ± 0.002 µM
- IC50 (MGLL; MGLL IC50, dog MGLL, summary statement for all species): < 0.03 µM
- Cmax ([4]; 2 mg, single oral dose 2 mg): 0.0029 µg/mL
- Tmax ([4]; 2 mg, single oral dose 2 mg): 1.5 h
- AUC(0-inf) ([4]; 2 mg, single oral dose 2 mg): 0.0159 µg·h/mL
- half-life ([4]; 2 mg, single oral dose 2 mg): 1.51 h
- Cmax ([4]; 6 mg, single oral dose 6 mg): 0.0102 µg/mL
- Tmax ([4]; 6 mg, single oral dose 6 mg): 1.67 h
- AUC(0-inf) ([4]; 6 mg, single oral dose 6 mg): 0.047 µg·h/mL
- half-life ([4]; 6 mg, single oral dose 6 mg): 2.23 h
- Cmax ([4]; 18 mg, single oral dose 18 mg): 0.0235 µg/mL
- Tmax ([4]; 18 mg, single oral dose 18 mg): 2 h
- AUC(0-inf) ([4]; 18 mg, single oral dose 18 mg): 0.109 µg·h/mL
- half-life ([4]; 18 mg, single oral dose 18 mg): 3.02 h
- Cmax ([4]; 50 mg, single oral dose 50 mg): 0.0598 µg/mL
- Tmax ([4]; 50 mg, single oral dose 50 mg): 1.8 h
- AUC(0-inf) ([4]; 50 mg, single oral dose 50 mg): 0.296 µg·h/mL
- half-life ([4]; 50 mg, single oral dose 50 mg): 3.44 h
- Cmax [4, 7]: 0.0457 µg/mL
- Tmax [4, 7]: 3.17 h
- AUC(0-inf) [4, 7]: 0.289 µg·h/mL
- half-life [4, 7]: 5.82 h
- Cmax [4, 8]: 0.076 µg/mL
- Tmax [4, 8]: 1.83 h
- AUC(0-inf) [4, 8]: 0.512 µg·h/mL
- half-life [4, 8]: 3.76 h
- Cmax [4, 9]: 0.109 µg/mL
- Tmax [4, 9]: 3 h
- AUC(0-inf) [4, 9]: 0.766 µg·h/mL
- half-life [4, 9]: 3.61 h
- concentration at 4 h (in vivo; blood): 7 nM
- concentration at 4 h (in vivo; brain): 5 nM
- overt behavioral or locomotor perturbations (formalin-challenged rats; rats, at the ED50 dose and at oral doses 20-fold higher): not apparent
SMILES: O=C(OC(C(F)(F)F)C(F)(F)F)N1CCN(Cc2ccc(C(F)(F)F)cc2N2CCCC2)CC1 [Compound 1, 1,1,1,3,3,3-hexafluoropropan-2-yl 4-(2-(pyrrolidin-1-yl)-4-(trifluoromethyl)benzyl)piperazine-1-carboxylate]
- elevation in brain 2-AG concentrations at the Phase 2 ED50 (2-AG [2]; rat formalin model, 0.5 mg/kg PO): approximately 3 fold
- brain levels of the endocannabinoid anandamide (2-AG [2]; rat, single oral doses): not elevated
- increase of 2-AG concentration in plasma (2-AG [2]; rat, single oral doses): 7 fold
- ED50 (2-AG [2]; rat, single oral doses up to 30 mg/kg, 4 hours, read-out: ED50 for increase of brain 2-AG concentrations (average)): 1.3 mg/kg
- increase of plasma 2-AG levels (2-AG [3]): up to 7 fold
- effect of single and repeated administration on pain behaviors (formalin-challenged rats; 1 mg/kg, single vs 5 days QD, n=10, repeat dose group not statistically different from vehicle): numerically reduced pain behaviors to a similar extent
- ED50 for exposure associated with efficacy (formalin-challenged rats; rat formalin nocifensive model): 0.4 µM·h
- Phase 2 ED50, paw licking behavior (formalin-challenged rats; single dose PO, 4 hours pre-test, n=10): 0.5 mg/kg
- effect on nociception in formalin-challenged rats (formalin-challenged rats; single dose up to 10 mg/kg PO, 4 hours pre-test, early (Phase 1) and delayed (Phase 2) phases): dose-dependent antinociceptive effects
- increase of brain 2-AG concentrations (2-AG [5]): up to 30 fold
